This passage reports Ki results from patent US8796299B2, “NK1 antagonists” (OPKO Health, Inc., priority 2001, dated 2014).

NK1 receptor, sequence (P25103 whole entry, species assumed): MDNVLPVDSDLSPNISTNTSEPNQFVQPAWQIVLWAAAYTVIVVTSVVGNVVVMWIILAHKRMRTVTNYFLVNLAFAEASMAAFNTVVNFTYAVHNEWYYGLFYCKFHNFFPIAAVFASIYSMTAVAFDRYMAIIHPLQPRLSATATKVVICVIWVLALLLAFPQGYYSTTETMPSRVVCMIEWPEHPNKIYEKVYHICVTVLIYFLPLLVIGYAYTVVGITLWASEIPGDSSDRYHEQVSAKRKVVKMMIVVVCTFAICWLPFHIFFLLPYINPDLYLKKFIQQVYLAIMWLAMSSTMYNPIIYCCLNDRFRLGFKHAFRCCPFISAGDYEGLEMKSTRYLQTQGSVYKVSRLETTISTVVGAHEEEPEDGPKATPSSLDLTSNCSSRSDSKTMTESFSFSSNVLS

In this experiment the target is NK1 receptor (Homo sapiens, UniProt P25103). In words: NK1 receptor binding: inhibition of Substance P binding, Ki from the 50% inhibition concentration. The settings on record: average Ki for the NK1 receptor. The text has this: Compounds having the formula (I) can be effective antagonists of the NK1 receptor, and of an effect of its endogenous agonist, Substance P, at the NK1 receptor site, and therefore, can be useful in treating conditions caused or aggravated by the activity of said receptor. The in vitro and in vivo NK1, NK2 and NK3 activities of the compounds having the formula (I) can be determined by various procedures known in the art, such as a test for their ability to inhibit the activity of the NK1 agonist Substance P. The percent inhibition of neurokinin agonist activity is the difference between the percent of maximum specific binding (“MSB”) and 100%. The percent of MSB is defined by the following equation, wherein “dpm” represents “disintegrations per minute”:
[formula] The concentration at which the compound produces 50% inhibition of binding is then used to determine an inhibition constant (“Ki”) using the Chang-Prusoff equation.
The activities (potencies) for the compounds of the invention are determined by measuring their Ki values. […] Even more preferred are compounds having average Ki values of from 0.01 nM to about 10 nM for the NK1 receptor. The most preferred compounds have NK1 average Ki values of from 0.01 nM to about 3 nM.
Take `C[C@@H](OC[C@@]1(c2ccccc2)CC[C@]2(CN1)NC(=O)NC2=O)c1cc(C(F)(F)F)cc(C(F)(F)F)c1` [Example 43b]: the inhibition constant (Ki) (commonly a dissociation constant, usually derived from enzyme kinetics or from competition with a known ligand) amounted to 0.77 nM. This counts as sub-nanomolar. As to `C[C@@H](OC[C@@]1(c2ccccc2)CC[C@]2(CCC(=O)N2)CN1)c1cc(C(F)(F)F)cc(C(F)(F)F)c1` [Example 72a], the inhibitory constant (Ki) stood at 0.66 nM. Then `C[C@@H](OC[C@@]1(c2ccccc2)CC[C@@]2(CN1)COC(=O)N2)c1cc(C(F)(F)F)cc(C(F)(F)F)c1` [Example 73b], with 0.2 nM; and `C[C@@H](OC[C@@]1(c2ccccc2)CC[C@H](n2cn[nH]c2=O)CN1)c1cc(C(F)(F)F)cc(C(F)(F)F)c1` [Example 109], with 0.1 nM. Then `C[C@@H](OC[C@@]1(c2ccccc2)CC[C@]2(CCCC(=O)N2)CN1)c1cc(C(F)(F)F)cc(C(F)(F)F)c1` [Example 110a], with 0.41 nM; and `C[C@@H](OC[C@@]1(c2ccccc2)CC[C@]2(CCOC(=O)N2)CN1)c1cc(C(F)(F)F)cc(C(F)(F)F)c1` [Example 111a], with 0.38 nM.
